Measurements as given in the NIST ThermoML archive (doi:10.1016/j.tca.2016.03.033).
± gives the expanded uncertainty stated by the source.

Assays:
[1] = xn = mol fraction of the nth substance listed; conditions: Ring tensiometer
[2] = Ring tensiometer

Structure (SMILES): [F][La]([F])[F] [lanthanum trifluoride] + [F-].[Li+]
- surface tension liquid-gas ([1]; 1223 K, x1 = 0.2): 257.3 ± 4.2 mN/m
- surface tension liquid-gas ([1]; 1223 K, x1 = 0.25): 264.7 ± 4.3 mN/m
- surface tension liquid-gas ([1]; 1223 K, x1 = 0.3): 272.2 ± 4.4 mN/m
- surface tension liquid-gas ([1]; 1248 K, x1 = 0.2): 254.9 ± 4.1 mN/m
- surface tension liquid-gas ([1]; 1248 K, x1 = 0.25): 262.1 ± 4.2 mN/m
- surface tension liquid-gas ([1]; 1248 K, x1 = 0.3): 269.5 ± 4.4 mN/m
- surface tension liquid-gas ([1]; 1273 K, x1 = 0.2): 251.8 ± 4.1 mN/m
- surface tension liquid-gas ([1]; 1273 K, x1 = 0.25): 259 ± 4.2 mN/m
- surface tension liquid-gas ([1]; 1273 K, x1 = 0.3): 267.2 ± 4.3 mN/m
- surface tension liquid-gas ([1]; 1298 K, x1 = 0.2): 249.3 ± 4 mN/m
- surface tension liquid-gas ([1]; 1298 K, x1 = 0.25): 256.3 ± 4.2 mN/m
- surface tension liquid-gas ([1]; 1298 K, x1 = 0.3): 264.9 ± 4.3 mN/m
- surface tension liquid-gas ([1]; 1298 K, x1 = 0.35): 274.2 ± 4.4 mN/m
- surface tension liquid-gas ([1]; 1323 K, x1 = 0.2): 247 ± 4 mN/m
- surface tension liquid-gas ([1]; 1323 K, x1 = 0.25): 253.6 ± 4.1 mN/m
- surface tension liquid-gas ([1]; 1323 K, x1 = 0.3): 262.1 ± 4.3 mN/m
- surface tension liquid-gas ([1]; 1323 K, x1 = 0.35): 271.4 ± 4.4 mN/m
- surface tension liquid-gas ([1]; 1323 K, x1 = 0.4): 281.7 ± 4.6 mN/m
- surface tension liquid-gas ([1]; 1348 K, x1 = 0.2): 244.4 ± 4 mN/m
- surface tension liquid-gas ([1]; 1348 K, x1 = 0.25): 251.2 ± 4.1 mN/m
- surface tension liquid-gas ([1]; 1348 K, x1 = 0.3): 258.9 ± 4.2 mN/m
- surface tension liquid-gas ([1]; 1348 K, x1 = 0.35): 268.3 ± 4.4 mN/m
- surface tension liquid-gas ([1]; 1348 K, x1 = 0.4): 279.1 ± 4.5 mN/m
- surface tension liquid-gas ([1]; 1373 K, x1 = 0.2): 242.1 ± 3.9 mN/m
- surface tension liquid-gas ([1]; 1373 K, x1 = 0.25): 248.8 ± 4 mN/m
- surface tension liquid-gas ([1]; 1373 K, x1 = 0.3): 256.5 ± 4.2 mN/m
- surface tension liquid-gas ([1]; 1373 K, x1 = 0.35): 265 ± 4.3 mN/m
- surface tension liquid-gas ([1]; 1373 K, x1 = 0.4): 276.5 ± 4.5 mN/m
- surface tension liquid-gas ([1]; 1398 K, x1 = 0.2): 239.2 ± 3.9 mN/m
- surface tension liquid-gas ([1]; 1398 K, x1 = 0.25): 246.7 ± 4 mN/m
- surface tension liquid-gas ([1]; 1398 K, x1 = 0.3): 253.8 ± 4.1 mN/m
- surface tension liquid-gas ([1]; 1398 K, x1 = 0.35): 262.2 ± 4.3 mN/m
- surface tension liquid-gas ([1]; 1398 K, x1 = 0.4): 274 ± 4.5 mN/m
- surface tension liquid-gas ([1]; 1423 K, x1 = 0.2): 236.9 ± 3.9 mN/m
- surface tension liquid-gas ([1]; 1423 K, x1 = 0.25): 243.9 ± 4 mN/m
- surface tension liquid-gas ([1]; 1423 K, x1 = 0.3): 251.3 ± 4.1 mN/m
- surface tension liquid-gas ([1]; 1423 K, x1 = 0.35): 259.8 ± 4.2 mN/m
- surface tension liquid-gas ([1]; 1423 K, x1 = 0.4): 270.9 ± 4.4 mN/m

Structure (SMILES): [F][Nd]([F])[F] [neodymium fluoride] + [F-].[Li+]
- surface tension liquid-gas ([1]; 1223 K, x1 = 0.2): 249.1 ± 4.1 mN/m
- surface tension liquid-gas ([1]; 1223 K, x1 = 0.25): 258.3 ± 4.2 mN/m
- surface tension liquid-gas ([1]; 1223 K, x1 = 0.3): 267.8 ± 4.4 mN/m
- surface tension liquid-gas ([1]; 1223 K, x1 = 0.35): 279.2 ± 4.5 mN/m
- surface tension liquid-gas ([1]; 1248 K, x1 = 0.2): 247.2 ± 4 mN/m
- surface tension liquid-gas ([1]; 1248 K, x1 = 0.25): 255.7 ± 4.2 mN/m
- surface tension liquid-gas ([1]; 1248 K, x1 = 0.3): 264.9 ± 4.3 mN/m
- surface tension liquid-gas ([1]; 1248 K, x1 = 0.35): 276.8 ± 4.5 mN/m
- surface tension liquid-gas ([1]; 1273 K, x1 = 0.2): 244.3 ± 4 mN/m
- surface tension liquid-gas ([1]; 1273 K, x1 = 0.25): 253.5 ± 4.1 mN/m
- surface tension liquid-gas ([1]; 1273 K, x1 = 0.3): 262.7 ± 4.3 mN/m
- surface tension liquid-gas ([1]; 1273 K, x1 = 0.35): 273.3 ± 4.4 mN/m
- surface tension liquid-gas ([1]; 1273 K, x1 = 0.4): 284.1 ± 4.6 mN/m
- surface tension liquid-gas ([1]; 1298 K, x1 = 0.2): 241.9 ± 3.9 mN/m
- surface tension liquid-gas ([1]; 1298 K, x1 = 0.25): 250.9 ± 4.1 mN/m
- surface tension liquid-gas ([1]; 1298 K, x1 = 0.3): 259.5 ± 4.2 mN/m
- surface tension liquid-gas ([1]; 1298 K, x1 = 0.35): 270.4 ± 4.4 mN/m
- surface tension liquid-gas ([1]; 1298 K, x1 = 0.4): 280.7 ± 4.6 mN/m
- surface tension liquid-gas ([1]; 1323 K, x1 = 0.2): 239.6 ± 3.9 mN/m
- surface tension liquid-gas ([1]; 1323 K, x1 = 0.25): 249.3 ± 4.1 mN/m
- surface tension liquid-gas ([1]; 1323 K, x1 = 0.3): 257 ± 4.2 mN/m
- surface tension liquid-gas ([1]; 1323 K, x1 = 0.35): 268.1 ± 4.4 mN/m
- surface tension liquid-gas ([1]; 1323 K, x1 = 0.4): 279.6 ± 4.5 mN/m
- surface tension liquid-gas ([1]; 1348 K, x1 = 0.2): 237.3 ± 3.9 mN/m
- surface tension liquid-gas ([1]; 1348 K, x1 = 0.25): 246.3 ± 4 mN/m
- surface tension liquid-gas ([1]; 1348 K, x1 = 0.3): 254.5 ± 4.1 mN/m
- surface tension liquid-gas ([1]; 1348 K, x1 = 0.35): 266 ± 4.3 mN/m
- surface tension liquid-gas ([1]; 1348 K, x1 = 0.4): 276.8 ± 4.5 mN/m
- surface tension liquid-gas ([1]; 1373 K, x1 = 0.2): 235.2 ± 3.8 mN/m
- surface tension liquid-gas ([1]; 1373 K, x1 = 0.25): 243.6 ± 4 mN/m
- surface tension liquid-gas ([1]; 1373 K, x1 = 0.3): 251.6 ± 4.1 mN/m
- surface tension liquid-gas ([1]; 1373 K, x1 = 0.35): 262.7 ± 4.3 mN/m
- surface tension liquid-gas ([1]; 1373 K, x1 = 0.4): 274.1 ± 4.5 mN/m
- surface tension liquid-gas ([1]; 1398 K, x1 = 0.2): 232.9 ± 3.8 mN/m
- surface tension liquid-gas ([1]; 1398 K, x1 = 0.25): 240.4 ± 3.9 mN/m
- surface tension liquid-gas ([1]; 1398 K, x1 = 0.3): 249.3 ± 4.1 mN/m
- surface tension liquid-gas ([1]; 1398 K, x1 = 0.35): 260.4 ± 4.2 mN/m
- surface tension liquid-gas ([1]; 1398 K, x1 = 0.4): 272.1 ± 4.4 mN/m
- surface tension liquid-gas ([1]; 1423 K, x1 = 0.2): 230.8 ± 3.8 mN/m
- surface tension liquid-gas ([1]; 1423 K, x1 = 0.25): 239.1 ± 3.9 mN/m
- surface tension liquid-gas ([1]; 1423 K, x1 = 0.3): 246.9 ± 4 mN/m
- surface tension liquid-gas ([1]; 1423 K, x1 = 0.35): 257.3 ± 4.2 mN/m
- surface tension liquid-gas ([1]; 1423 K, x1 = 0.4): 268.2 ± 4.4 mN/m

Structure (SMILES): [Cl-].[K+] [potassium chloride]
- surface tension liquid-gas ([2]; 1230 K): 86.14 ± 1.5 mN/m

Structure (SMILES): [F-].[Na+] [sodium fluoride]
- surface tension liquid-gas ([2]; 1325 K): 187.14 ± 3.1 mN/m
